Values of other authors, collected in patent US20240368262A1, “A MYOSTATIN PATHWAY INHIBITOR IN COMBINATION WITH A GLP-1 PATHWAY ACTIVATOR FOR USE IN TREATING METABOLIC DISORDERS” (SCHOLAR ROCK, INC., priority 2021, published 2024).

Test system: GIP and GLP-1 receptor
Settings: Rosenstock et al., Lancet; cited from earlier work

Tirzepatide
body weight: reduce body weight | glycemic control: improve glycemic control
